Experimental data: article PMC12395388 (Regulatory toxicology and pharmacology : RTP, 2024)
Entries after “also recorded” stand apart in the source; their conditions may differ. Where two headings read alike, the source gives them in different places.

Experiments:
[1] = published by FDA as of September 4, 2024, ref FDA, 2024a; cited from earlier work
[2] = test system: Salmonella typhimurium tester strains TA98, TA100, TA1535, and TA1537, and Escherichia coli strain WP2 uvrA (pKM101); assay: Preincubation Ames test, five tester strains; format: cell-based; details: for Effect of length of preincubation on positive responses: 30 min vs 60 min, over all strains
[3] = test system: Salmonella typhimurium TA1535; assay: Preincubation Ames test, strain TA1535; format: cell-based; details: for Mutagenic response in TA1535: any activation condition and preincubation time; for More effective %S9 in S9 mix of more effective S9 (H or R) / Effectiveness of time of preincubation for most effective S9 / Effectiveness of hamster vs. rat S9s for each positive strain: strain TA1535; for More effective %S9 in S9 mix of more effective S9 (H or R): 10% vs 30% S9 in the S9 mix; for Effectiveness of time of preincubation for most effective S9: 30 vs 60 min; for Effectiveness of hamster vs. rat S9s for each positive strain: H = hamster liver S9, R = rat liver S9
[4] = PC1 most potent, PC5 least potent; ref FDA, 2024a; cited from earlier work
[5] = test system: Salmonella typhimurium TA100; assay: Preincubation Ames test, strain TA100; format: cell-based; details: for Effectiveness of time of preincubation for most effective S9: 30 vs 60 min; for Effectiveness of hamster vs. rat S9s for each positive strain: H = hamster liver S9, R = rat liver S9
[6] = test system: E. coli WP2 uvrA (pKM101); assay: Preincubation Ames test, strain WP2 uvrA; format: cell-based, Escherichia coli; details: for Effectiveness of time of preincubation for most effective S9 / Effectiveness of hamster vs. rat S9s for each positive strain: strain WP2 uvrA (pKM101); for Effectiveness of time of preincubation for most effective S9: 30 vs 60 min; for Effectiveness of hamster vs. rat S9s for each positive strain: H = hamster liver S9, R = rat liver S9; for Mutagenic response in WP2 uvrA (pKM101): any activation condition and preincubation time
[7] = test system: Salmonella typhimurium TA98; assay: Preincubation Ames test, strain TA98; format: cell-based; details: for Effectiveness of time of preincubation for most effective S9: 30 vs 60 min; for Direct-acting mutagenicity in TA98: no exogenous metabolic activation (no S9)
Ames tester strains = details: cited from earlier work
[8] = cited from earlier work
[9] = test system: CHO, V79, L5178Y/Tk+/−, TK6, HepaRG cells; details: cell lines as named in the value; ref as given in Table 2 Notes; cited from earlier work
[10] = test system: Salmonella typhimurium TA1537; assay: Preincubation Ames test, strain TA1537; details: strain TA1537; 30 vs 60 min
[11] = published/posted results, ref representative Ames references of Table 2
[12] = with S9 activation, listed as N-nitroso-propranolol
[13] = listed as N-nitroso-N-ethylaniline

SMILES: O=NN(c1ccccc1CC(=O)O)c1c(Cl)cccc1Cl [NDSRI-19, 2-[2-(2,6-Dichloro-N-nitrosoanilino)phenyl]acetic acid]
- AI limit [1]: 1500 ng/day

SMILES: CC(C)N(N=O)C(C)C [SM-5, N,N-Di(propan-2-yl)nitrous amide]
- Activation condition required for positive responses ([2]; no S9, 10% and 30% rat or hamster liver S9, all strains, listed as NDIPA): positives were seen only with one strain (TA1535) and under one activation condition (preincubation with 30% hamster S9 mixes); also recorded: dependent upon preincubation with 30% hamster S9; also recorded: exclusively mutagenic with hamster liver S9
- Mutagenic response in TA1535 [3]: only positive strain
- More effective %S9 in S9 mix of more effective S9 (H or R) [3]: 30% only
- Effectiveness of time of preincubation for most effective S9 [3]: 60min = 30min
- Effectiveness of hamster vs. rat S9s for each positive strain [3]: H only
- AI limit [1]: 1500 ng/day
- CPCA Potency Category (PC) [4]: PC5

SMILES: C[C@H]1CN(N=O)CCc2ccc(Cl)cc21 [NDSRI-14, (5R)-7-Chloro-5-methyl-3-nitroso-1,2,4,5-tetrahydro-3-benzazepine]
- Effectiveness of time of preincubation for most effective S9 [3]: 60min = 30min
- Effectiveness of time of preincubation for most effective S9 ([5]; strain TA100): 60min = 30min
- Effectiveness of time of preincubation for most effective S9 [6]: 60min = 30min
- Effectiveness of time of preincubation for most effective S9 ([7]; strain TA98): 60min = 30min

SMILES: CN(C[C@H](O)c1cccc(O)c1)N=O [NDSRI-13, N-[(2R)-2-Hydroxy-2-(3-hydroxyphenyl)ethyl)-N-methylnitrous amide]
- AI limit [1]: 100 ng/day
- CPCA Potency Category (PC) [4]: PC2

SMILES: CC(C)[C@H](C(=O)O)N(Cc1ccc(-c2ccccc2-c2nn[nH]n2)cc1)N=O [NDSRI-25, (2R)-3-Methyl-2-[nitroso-[[4-[2-(2H-tetrazol-5-yl)phenyl]phenyl]methyl]amino]butanoic acid]
- Ames response (all S9-mediated except where noted) (Ames tester strains): Negative
- Mutagenicity in TGR assay ([8]; in vivo): Also negative in mouse TGR assay ([Glowienke et al., 2022])

SMILES: CN(CCC(Oc1ccc(C(F)(F)F)cc1)c1ccccc1)N=O (centres unmarked) [NDSRI-22, N-Methyl-N-[3-phenyl-3-[4-(trifluoromethyl)phenoxy]propyl]nitrous amide]
- Effect of length of preincubation on positive responses ([2]; listed as N-nitroso-fluoxetine): greater mutagenic responses with 30-min preincubations than with 60-min preincubations
- More effective %S9 in S9 mix of more effective S9 (H or R) [3]: 30% only
- Effectiveness of time of preincubation for most effective S9 [3]: 60min = 30min
- Effectiveness of hamster vs. rat S9s for each positive strain [3]: H only
- More effective %S9 in S9 mix of more effective S9 (H or R) ([5]; strain TA100, 10% vs 30% S9 in the S9 mix): 30% only
- Effectiveness of time of preincubation for most effective S9 ([5]; strain TA100): 30min only
- Effectiveness of hamster vs. rat S9s for each positive strain ([5]; strain TA100): H only
- Effectiveness of time of preincubation for most effective S9 [6]: 30min >60min
- More effective %S9 in S9 mix of more effective S9 (H or R) ([7]; strain TA98, 10% vs 30% S9 in the S9 mix): 30% only
- Effectiveness of time of preincubation for most effective S9 ([7]; strain TA98): 30min only
- Effectiveness of hamster vs. rat S9s for each positive strain ([7]; strain TA98, H = hamster liver S9, R = rat liver S9): H only
- Ames response (all S9-mediated except where noted) (Ames tester strains): Positive
- Mutagenicity in TGR assay ([8]; in vivo): mutagenic in rat TGR assay

SMILES: CN(CCOC(c1ccccc1)c1ccccc1)N=O [NDSRI-16, N-(2-(Benzhydryloxy)ethyl)-N-methylnitrous amide]
- Effect of length of preincubation on positive responses [2]: possibly N-nitroso-desmethyl-diphenhydramine benefited from a preincubation of 60 min compared with 30 min
- Effectiveness of time of preincubation for most effective S9 [3]: 60min = 30min
- Effectiveness of time of preincubation for most effective S9 ([5]; strain TA100): 60min = 30min
- Effectiveness of time of preincubation for most effective S9 [6]: 60min >30min

SMILES: O=NN1CCN(C2CCCC2)CC1 [SM-10, 1-Cyclopentyl-4-nitrosopiperazine]
- Effectiveness of time of preincubation for most effective S9 [3]: 60min = 30min
- Effectiveness of time of preincubation for most effective S9 ([5]; strain TA100): 30min ≥60min
- Effectiveness of time of preincubation for most effective S9 [6]: 60min = 30min
- Effectiveness of hamster vs. rat S9s for each positive strain [6]: H only
- AI limit [1]: 400 ng/day
- CPCA Potency Category (PC) [4]: PC3
- Mutagenicity/genotoxicity in mammalian cells in vitro [9]: Genotoxic in HepaRG cells ([Seo et al., 2023])

SMILES: CN(N=O)C1CCC(c2ccc(Cl)c(Cl)c2)c2ccccc21 (centres unmarked) [NDSRI-21, N-(4-(3,4-Dichlorophenyl)-1,2,3,4-tetrahydronaphthalen-1-yl)-N-methylnitrous amide]
- Effect of length of preincubation on positive responses [2]: greater mutagenic responses with 30-min preincubations than with 60-min preincubations
- Mutagenic response in TA1535 ([3]; listed as N-nitroso-sertraline): negative; also recorded: not positive
- Mutagenic response in WP2 uvrA (pKM101) ([6]; listed as N-nitroso-sertraline): positive only; also recorded: mutagenic
- Effectiveness of time of preincubation for most effective S9 [6]: 30min >60min
- Effectiveness of hamster vs. rat S9s for each positive strain [6]: H only
- AI limit [1]: 100 ng/day
- CPCA Potency Category (PC) [4]: PC2

SMILES: CN(CCC(Oc1cccc2ccccc12)c1cccs1)N=O (centres unmarked) [NDSRI-20, N-Methyl-N-(3-naphthalen-1-yloxy-3-thiophen-2-ylpropyl) nitrous amide]
- Effectiveness of time of preincubation for most effective S9 [3]: 60min = 30min
- Effectiveness of time of preincubation for most effective S9 ([5]; strain TA100): 30min >60min
- Effectiveness of time of preincubation for most effective S9 [6]: 60min = 30min
- Ames response (all S9-mediated except where noted) (Ames tester strains; [11]): Positive
- AI limit [1]: 100 ng/day
- Mutagenicity in TGR assay ([8]; species as in value, ref as given in Table 2 Notes): Interim AI limit currently in force; mutagenic in rat TGR assay ([Jolly et al., 2024])

SMILES: O=NN1CC2CC(C1)c1cc3nccnc3cc12 [NDSRI-15, 8-Nitroso-7,8,9, 10-tetrahydro-6H-6, 10-methanoazepino[4,5-g]quinoxaline]
- Effect of length of preincubation on positive responses [2]: benefited from a preincubation of 60 min compared with 30 min
- Effectiveness of time of preincubation for most effective S9 [3]: 60min ≥30min
- Effectiveness of time of preincubation for most effective S9 ([5]; strain TA100): 60min = 30min
- Effectiveness of hamster vs. rat S9s for each positive strain ([5]; strain TA100): H only
- Effectiveness of time of preincubation for most effective S9 [6]: 60min = 30min
- Effectiveness of time of preincubation for most effective S9 ([7]; strain TA98): 60min ≥30min
- AI limit [1]: 400 ng/day
- CPCA Potency Category (PC) [4]: PC3
- Effectiveness of time of preincubation for most effective S9 [10]: 60min ≥30min

SMILES: CC(C)N(CC(O)COc1cccc2ccccc12)N=O (centres unmarked) [NDSRI-17, N-(2-Hydroxy-3-naphthalen-1-yloxypropyl)-N-propan-2-ylnitrous amide]
- Effectiveness of time of preincubation for most effective S9 [3]: 60min = 30min
- S9-mediated mutagenicity in TA1535 [3, 12]: mutagenic
- Effectiveness of time of preincubation for most effective S9 ([5]; strain TA100): 60min = 30min
- S9-mediated mutagenicity in TA100 [5, 12]: mutagenic
- Direct-acting mutagenicity in TA98 [7]: b Direct acting mutagen in TA98.
- Direct-acting mutagenicity in TA98 ([7]; listed as N-nitroso-propranolol): direct acting mutagen; also recorded: direct-acting mutagenicity of N-nitroso-propranolol was limited to TA98
- Effectiveness of time of preincubation for most effective S9 ([7]; strain TA98): 60min = 30min
- Ames response (all S9-mediated except where noted) (Ames tester strains; [11]): Positive; direct-acting in TA98
- AI limit [1]: 1500 ng/day
- CPCA Potency Category (PC) [4]: PC4

SMILES: CCCCCCOC(=O)NC(=N)c1ccc(N(Cc2nc3cc(C(=O)N(CCC(=O)OCC)c4ccccn4)ccc3n2C)N=O)cc1 [NDSRI-29, Ethyl 3-[[2-[[4-(N-hexoxycarbonylcarbamimidoyl)-N-nitrosoanilino]methyl]-1-methylbenzimidazole-5-carbonyl]-pyridin-2-ylamino]propanoate]
- AI limit [1]: 400 ng/day
- CPCA Potency Category (PC) [4]: PC3

SMILES: CCN(N=O)C(C)C [SM-3, N-Ethyl-N-propan-2-ylnitrous amide]
- Effectiveness of time of preincubation for most effective S9 [3]: 60min = 30min
- Effectiveness of time of preincubation for most effective S9 [6]: 60min = 30min
- AI limit [1]: 400 ng/day
- CPCA Potency Category (PC) [4]: PC3
- Mutagenicity/genotoxicity in mammalian cells in vitro [9]: Genotoxic in HepaRG, TK6 cells ([Li et al., 2022]; [Seo et al., 2023])

SMILES: CCN(N=O)c1ccccc1 [SM-8, N-Ethyl-N-phenylnitrous amide]
- Effect of length of preincubation on positive responses [2]: benefited from a preincubation of 60 min compared with 30 min
- Mutagenic response in TA1535 [3, 13]: negative
- Mutagenic response in TA1535 ([3]; listed as NEPA): not positive
- Mutagenic response in WP2 uvrA (pKM101) [6, 13]: positive only
- Mutagenic response in WP2 uvrA (pKM101) ([6]; listed as NEPA): mutagenic
- Effectiveness of time of preincubation for most effective S9 [6]: 60min ≥ 30min
- Ames response (all S9-mediated except where noted) (Ames tester strains): Positive only with comutagen

SMILES: CN(CCC=C1c2ccccc2CCc2ccccc21)N=O [NDSRI-18, N-Methyl-N-[3-(2-tricyclo[9.4.0.03,8]pentadeca-1 (15),3,5,7,11,13-hexaenylidene)propyl]nitrous amide]
- Effectiveness of time of preincubation for most effective S9 [3]: 60min = 30min
- Effectiveness of time of preincubation for most effective S9 ([5]; strain TA100): 60min = 30min
- Effectiveness of time of preincubation for most effective S9 [6]: 60min = 30min
